Measured values reported in patent publication US9303016B2, “Derivatives of aza adamantane and uses thereof” (CONNEXIOS LIFE SCIENCES PVT. LTD., priority 2011, dated 2016).

Assays:
[1] = biological target: T1, human full length HSD11β1 (Homo sapiens, UniProt P28845); test: In Vitro HSD11β1 Inhibition Assay; assay type: cell-based; conditions: CHO cells transiently expressing human HSD11β1; 200 nM cortisone+500 uM NADPH overnight; cortisone to cortisol by LC/MS-MS; read-out: 11βHSD1 (IC50)
T1 construct: transient expression of human full length HSD11β1 expression vector; host or cells: CHO cells, transient transfection
How it was run: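 Whole-cell assay in CHO cells transiently transfected with full-length human HSD11β1, re-seeded 24 h after transfection. Cells incubated overnight with 200 nM cortisone plus 500 uM NADPH, with or without inhibitor. Cortisone-to-cortisol conversion measured by LC/MS-MS; IC50 (nM) from an 8-point log concentration-inhibition curve.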

[2] = phase IIa, 28-days, placebo-controlled, two-step hyperinsulinemic clamp studies; cited from earlier work

T1 sequence (P28845 whole entry): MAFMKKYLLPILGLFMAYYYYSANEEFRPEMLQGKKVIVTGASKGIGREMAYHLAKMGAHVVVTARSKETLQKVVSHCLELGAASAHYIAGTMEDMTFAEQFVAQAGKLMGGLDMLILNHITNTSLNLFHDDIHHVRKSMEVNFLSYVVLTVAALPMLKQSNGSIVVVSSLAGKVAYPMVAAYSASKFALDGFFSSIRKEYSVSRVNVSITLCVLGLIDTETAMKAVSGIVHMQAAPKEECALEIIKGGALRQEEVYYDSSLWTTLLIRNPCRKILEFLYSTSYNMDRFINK

Structure (SMILES) | IC50 [1] [nM] | safety and tolerability [2]
CC(CC(=O)N1C2CC3CC1CC(C(=O)O)(C3)C2)c1c[nH]c2cccc(C3CC3)c12 (centres unmarked) [Example 51, 2-[3-(4-cyclopropyl-1H-indol-3-yl)butanoyl]-2-azatricyclo[3.3.1.1^3,7]decane-5-carboxylic acid] | > 250 | 
CC(CC(=O)N1C2CC3CC1CC(C(=O)O)(C3)C2)c1c[nH]c2cccc(Br)c12 (centres unmarked) [Example 55, 2-[3-(4-bromo-1H-indol-3-yl)butanoyl]-2-azatricyclo[3.3.1.1^3,7]decane-5-carboxylic acid] | > 250 | 
CC(CC(=O)N1C2CC3CC1CC(C(N)=O)(C3)C2)c1c[nH]c2cccc(C3CC3)c12 (centres unmarked) [Example 56, 2-[3-(4-cyclopropyl-1H-indol-3-yl)butanoyl]-2-azatricyclo[3.3.1.1^3,7]decane-5-carboxamide] | < 100 | 
Cc1cccc2[nH]cc(C(C)CC(=O)N3C4CC5CC3CC(C(=O)O)(C5)C4)c12 (centres unmarked) [Example 57, 2-[3-(4-methyl-1H-indol-3-yl)butanoyl]-2-azatricyclo[3.3.1.1^3,7]decane-5-carboxylic acid] | > 250 | 
CC(CC(=O)N1C2CC3CC1CC(CO)(C3)C2)c1c[nH]c2cccc(Cl)c12 (centres unmarked) [Example 58, 3-(4-chloro-1H-indol-3-yl)-1-[5-(hydroxymethyl)-2-azatricyclo[3.3.1.1^3,7]dec-2-yl]butan-1-one] | < 100 | 
CC(CC(=O)N1C2CC3CC1CC(C#N)(C3)C2)c1c[nH]c2cccc(Cl)c12 (centres unmarked) [Example 59, 2-[3-(4-chloro-1H-indol-3-yl)butanoyl]-2-azatricyclo[3.3.1.1^3,7]decane-5-carbonitrile] | 100 to 150 | 
Cc1[nH]c2cccc(Cl)c2c1C(C)CC(=O)N1C2CC3CC1CC(O)(C3)C2 (centres unmarked) [Example 60, 3-(4-chloro-2-methyl-1H-indol-3-yl)-1-(5-hydroxy-2-azatricyclo[3.3.1.1^3,7]dec-2-yl)butan-1-one] | > 250 | 
CC(CC(=O)N1C2CC3CC1CC(C(=O)O)(C3)C2)c1c[nH]c2ccccc12 (centres unmarked) [Example 61, 2-[3-(1H-indol-3-yl)butanoyl]-2-azatricyclo[3.3.1.1^3,7]decane-5-carboxylic acid] | > 250 | 
CC(CC(=O)N1C2CC3CC1CC(C(=O)O)(C3)C2)c1c[nH]c2cccc(-c3ccc(F)cc3)c12 (centres unmarked) [Example 62, 2-{3-[4-(4-fluorophenyl)-1H-indol-3-yl]butanoyl}-2-azatricyclo[3.3.1.1^3,7]decane-5-carboxylic acid] | > 250 | 
CC(CC(=O)N1C2CC3CC1CC(C(=O)NCc1ccc(C(=O)O)cc1)(C3)C2)c1c[nH]c2cccc(C3CC3)c12 (centres unmarked) [Example 63, 4-{[({2-[3-(4-cyclopropyl-1H-indol-3-yl)butanoyl]-2-azatricyclo[3.3.1.1^3,7]dec-5-yl}carbonyl)amino]methyl}benzoic acid] | > 250 | 
CCC(CC(=O)N1C2CC3CC1CC(O)(C3)C2)c1c[nH]c2ccccc12 (centres unmarked) [Example 64, 1-(5-hydroxy-2-azatricyclo[3.3.1.1^3,7]dec-2-yl)-3-(1H-indol-3-yl)pentan-1-one] | 100 to 150 | 
CC(CC(=O)N1C2CC3CC1CC(C#N)(C3)C2)c1c[nH]c2ccccc12 (centres unmarked) [Example 65] | 200 to 250 | 
O=C(CC(c1c[nH]c2ccccc12)C1CC1)N1C2CC3CC1CC(O)(C3)C2 (centres unmarked) [Example 66, 3-cyclopropyl-1-(5-hydroxy-2-azatricyclo[3.3.1.1^3,7]dec-2-yl)-3-(1H-indol-3-yl)propan-1-one] | > 250 | 
O=C(CC(c1ccccc1)c1c[nH]c2ccccc12)N1C2CC3CC1CC(O)(C3)C2 (centres unmarked) [Example 67, 1-(5-hydroxy-2-azatricyclo[3.3.1.1^3,7]dec-2-yl)-3-(1H-indol-3-yl)-3-phenylpropan-1-one] | 100 to 150 | 
CC(CC(=O)N1C2CC3CC1CC(O)(C3)C2)c1c[nH]c2ccc(Cl)cc12 (centres unmarked) [Example 68, 3-(5-chloro-1H-indol-3-yl)-1-(5-hydroxy-2-azatricyclo[3.3.1.1^3,7]dec-2-yl)butan-1-one] | > 250 | 
CC(CC(=O)N1C2CC3CC1CC(O)(C3)C2)c1c[nH]c2cc(Cl)ccc12 (centres unmarked) [Example 69, 3-(6-chloro-1H-indol-3-yl)-1-(5-hydroxy-2-azatricyclo[3.3.1.1^3,7]dec-2-yl)butan-1-one] | 100 to 150 | 
Cc1cccc2[nH]cc(C(C)CC(=O)N3C4CC5CC3CC(C#N)(C5)C4)c12 (centres unmarked) [Example 70, 2-[3-(4-methyl-1H-indol-3-yl)butanoyl]-2-azatricyclo[3.3.1.1^3,7]decane-5-carbonitrile] | 150 to 200 | 
O=C(CC(c1ccc(Cl)cc1)c1c[nH]c2ccccc12)N1C2CC3CC1CC(O)(C3)C2 (centres unmarked) [Example 71, 3-(4-chlorophenyl)-1-(5-hydroxy-2-azatricyclo[3.3.1.1^3,7]dec-2-yl)-3-(1H-indol-3-yl)propan-1-one] | > 250 | 
Cc1cccc2[nH]cc(C(CC(=O)N3C4CC5CC3CC(O)(C5)C4)c3ccccc3)c12 (centres unmarked) [Example 72, 1-(5-hydroxy-2-azatricyclo[3.3.1.1^3,7′]dec-2-yl)-3-(4-methyl-1H-indol-3-yl)-3-phenylpropan-1-one] | > 250 | 
CNC(=O)c1ccc(-c2ccc(C3(C(=O)N4CC[C@@]5(C4)OC(=O)c4ccccc45)CC3)cc2)cn1 [INCB13739] |  | safe and well tolerated
